How the values were obtained:
Histamine H3 receptor [1] = target: T1, Histamine H3 receptor (Homo sapiens, UniProt Q9Y5N1); assay: Displacement of [3H]RAMH from human histamine H3 receptor expressed in CHO cells at 3 uM; type: cell-based
Histamine H3 receptor [2] = target: T1, Histamine H3 receptor; assay: Displacement of [3H]RAMH from human histamine H3 receptor expressed in CHO cells; type: cell-based
[3] = target: Histamine H1 receptor (Homo sapiens) (UniProt P35367); assay: Inhibition of histamine H1 receptor at 3 uM
Histamine H1 receptor (Homo sapiens), sequence (P35367 whole entry): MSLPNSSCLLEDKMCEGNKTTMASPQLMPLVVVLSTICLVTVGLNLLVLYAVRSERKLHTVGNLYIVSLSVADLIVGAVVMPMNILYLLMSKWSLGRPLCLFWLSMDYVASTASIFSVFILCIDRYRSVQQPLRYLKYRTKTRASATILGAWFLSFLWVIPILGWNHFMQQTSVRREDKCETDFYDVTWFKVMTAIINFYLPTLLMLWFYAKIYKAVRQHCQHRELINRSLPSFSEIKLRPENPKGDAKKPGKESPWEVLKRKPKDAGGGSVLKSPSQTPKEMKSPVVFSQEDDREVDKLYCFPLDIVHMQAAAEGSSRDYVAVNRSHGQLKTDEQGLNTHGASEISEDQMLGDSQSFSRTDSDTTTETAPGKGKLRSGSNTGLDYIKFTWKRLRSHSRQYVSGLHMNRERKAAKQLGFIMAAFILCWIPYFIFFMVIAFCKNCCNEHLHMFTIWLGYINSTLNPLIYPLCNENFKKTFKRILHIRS

[4] = target: Histamine H4 receptor (Homo sapiens) (UniProt Q9H3N8); assay: Inhibition of histamine H4 receptor at 3 uM
Histamine H3 receptor [5] = target: T1, Histamine H3 receptor; assay: Inverse agonist activity at human histamine H3 receptor expressed in CHO cells by GTPgammaS assay; type: functional, cell-based
[6] = target: Histamine H2 receptor (Homo sapiens) (UniProt P25021); assay: Inhibition of histamine H2 receptor at 3 uM
Histamine H2 receptor (Homo sapiens), sequence (P25021 whole entry): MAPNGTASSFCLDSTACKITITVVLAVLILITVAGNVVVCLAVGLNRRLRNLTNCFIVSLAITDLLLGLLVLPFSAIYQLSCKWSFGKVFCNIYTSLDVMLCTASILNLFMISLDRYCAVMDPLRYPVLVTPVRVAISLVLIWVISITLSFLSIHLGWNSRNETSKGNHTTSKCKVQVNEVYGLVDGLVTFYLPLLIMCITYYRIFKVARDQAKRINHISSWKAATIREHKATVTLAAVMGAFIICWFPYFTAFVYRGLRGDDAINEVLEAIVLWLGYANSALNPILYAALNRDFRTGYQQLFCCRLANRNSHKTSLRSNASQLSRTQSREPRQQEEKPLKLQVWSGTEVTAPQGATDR

T1 sequence (Q9Y5N1 whole entry): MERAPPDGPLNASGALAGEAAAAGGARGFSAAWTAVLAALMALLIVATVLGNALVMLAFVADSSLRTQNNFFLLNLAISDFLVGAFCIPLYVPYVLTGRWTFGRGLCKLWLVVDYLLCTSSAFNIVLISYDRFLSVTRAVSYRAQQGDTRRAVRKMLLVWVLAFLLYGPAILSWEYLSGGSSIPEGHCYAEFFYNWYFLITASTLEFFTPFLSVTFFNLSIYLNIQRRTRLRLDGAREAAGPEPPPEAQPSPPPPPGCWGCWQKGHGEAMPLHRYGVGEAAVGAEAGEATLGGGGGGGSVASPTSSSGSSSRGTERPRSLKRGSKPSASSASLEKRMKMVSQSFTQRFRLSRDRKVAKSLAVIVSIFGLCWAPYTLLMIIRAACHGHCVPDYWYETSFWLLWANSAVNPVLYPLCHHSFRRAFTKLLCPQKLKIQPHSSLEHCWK

| Compound | inhibition (Histamine H3 receptor [1]) | Ki (Histamine H3 receptor [2]) | also measured |
| --- | --- | --- | --- |
| O=C(c1cccc2cc(OCCCN3CCCCC3)ccc12)N1CCCC1 | 58% | – | – |
| CC(C)N1CCC(Oc2ccc3c(C(=O)NC4CCCCC4)cccc3c2)CC1 | 52% | – | – |
| C[C@H]1CC[C@H](C)N1CCCOc1ccc(-c2ccc(C(=O)N3CCOCC3)cc2)cc1 (single isomer, unassigned) [A-349,821] | – | 12 nM | – |
| CC(C)N1CCC(Nc2ccc3cc(C(=O)NC4CCCCC4)ccc3c2)CC1 | 57% | – | – |
| c1ccc2c(Nc3ccc(OCCCN4CCCCC4)cc3)ccnc2c1 | – | 0.5 nM | – |

Second part, led by results:

| inhibition (Histamine H3 receptor [1]) | Ki (Histamine H3 receptor [2]) | Compound | also measured |
| --- | --- | --- | --- |
| – | 4 nM | O=C(c1ccc2cc(OCCCN3CCCCC3)ccc2c1)N1CCCC1 | – |
| – | 87 nM | CC(C)N1CCC(Oc2ccc3cc(C(=O)NC4CCCCC4)ccc3c2)CC1 | inhibition [3]: < 25%; inhibition [4]: < 25%; EC50 (Histamine H3 receptor [5]): 21 nM; inhibition [6]: < 25% |
| 53% | – | CC(C)N1CCC(Oc2ccc3c(C(=O)N4CCCC4)cccc3c2)CC1 | – |
| 61% | – | CC(C)N1CCC(Nc2ccc3cc(C(=O)N4CCOCC4)ccc3c2)CC1 | – |
| – | 57 nM | CC(C)N1CCC(Oc2ccc3cc(C(=O)N4CCCC4)ccc3c2)CC1 | – |
| 45% | – | CC(C)N1CCC(Nc2ccc3cc(C(=O)N4CCCC4)ccc3c2)CC1 | – |

Reference: ChEMBL document CHEMBL1155826, “Refinement of histamine H3 ligands pharmacophore model leads to a new class of potent and selective naphthalene inverse agonists” (Bioorg Med Chem Lett, 2008)
